This is an account of results in PubChem BioAssay (NCI).

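Step 1: Grow cells in 96-well plates. Step 2: Expose to compound for 48 hours at 5 concentrations. Step 3: Interpolate endpoints linearly; if unreached, use highest concentration. Here, GI50 denotes the concentration required for 50% inhibition of growth. The concentration for full growth arrest is given as TGI.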

Among the test systems are EKVX NSCLC; LOX IMVI melanoma; SK-MEL-28 melanoma; M14 melanoma; HOP-92 NSCLC; SNB-19 CNS; CAKI-1 renal.
Common to all, as to assay: NCI-60 cell line screen, 48 h

With `O=C(Nc1cc(Cl)ccc1Cl)c1cc2ccccc2oc1=O`, the TGI in the experiment with EKVX NSCLC, in the experiment on LOX IMVI melanoma, with SK-MEL-28 melanoma and in the experiment on M14 melanoma was above 100 µM each time.
On to `CCc1cccc(CC)c1NC1=CC(=O)C(=O)c2ccccc21`, for which the TGI in the experiment with EKVX NSCLC was found to be 27.9 µM; in the experiment with LOX IMVI melanoma, 29.3 µM; with HOP-92 NSCLC it was 29.6 µM; with SNB-19 CNS, 63.3 µM; with CAKI-1 renal, 44.3 µM; with SK-MEL-28 melanoma, 37.4 µM. Moreover, the TGI in the experiment on M14 melanoma is 27.2 µM.
Consider `CCCCCCCCCCCCCCCCCCCCCCC(=O)N[C@H]1CCc2cc(OC)c(OC)c(OC)c2-c2ccc(SC)c(=O)cc21`, for which the TGI in the experiment with EKVX NSCLC was above 100 µM; with HOP-92 NSCLC it was above 100 µM; in the experiment with SNB-19 CNS, above 100 µM; in the experiment with CAKI-1 renal it was above 100 µM; with SK-MEL-28 melanoma, above 100 µM; in the experiment with M14 melanoma, 90.4 µM.
For `C=CC(C)(C)[C@@]12CC3C(=O)N[C@@H](Cc4ccccc4)C(=O)N3[C@@H]1N(C(C)=O)c1ccccc12` (stereo partly drawn), the TGI is above 100 µM in the experiment on EKVX NSCLC; above 100 µM in the experiment with LOX IMVI melanoma; 91.2 µM in the experiment on HOP-92 NSCLC; above 100 µM in the experiment with SNB-19 CNS; above 100 µM with SK-MEL-28 melanoma; above 100 µM with M14 melanoma.
As for `CC(=O)NNc1nc(C)c(C(=O)NNC(=O)C(=O)Nc2ccc(C)cc2[N+](=O)[O-])s1`, the TGI in the experiment on EKVX NSCLC, in the experiment on LOX IMVI melanoma, in the experiment on HOP-92 NSCLC, with SNB-19 CNS, with CAKI-1 renal and with SK-MEL-28 melanoma was above 100 µM in each case. The molecule also gave a TGI with M14 melanoma above 100 µM.
Take `CC(=O)Nc1ccc(/C=C/C(=O)c2sc(-n3nc(-c4ccccc4)cc3-c3ccccc3)nc2C)cc1`: the GI50 in the experiment on EKVX NSCLC, in the experiment on LOX IMVI melanoma, in the experiment with SNB-19 CNS, with CAKI-1 renal, with SK-MEL-28 melanoma and in the experiment with M14 melanoma was above 100 µM throughout. The TGI in the experiment with EKVX NSCLC, with LOX IMVI melanoma, with SNB-19 CNS, in the experiment with CAKI-1 renal, in the experiment with SK-MEL-28 melanoma and with M14 melanoma was above 100 µM throughout.
As to `N#Cc1cccc(C2SCc3nc4ccccc4n32)c1` (stereo not drawn), the TGI with EKVX NSCLC, in the experiment with LOX IMVI melanoma, with HOP-92 NSCLC, with SNB-19 CNS, with CAKI-1 renal and in the experiment with SK-MEL-28 melanoma was above 100 µM throughout.
With `O=C(CC1(O)C(=O)Nc2ccc(Br)cc21)c1cccc([N+](=O)[O-])c1` (stereo not drawn), the TGI is above 100 µM in the experiment with EKVX NSCLC; above 100 µM in the experiment with LOX IMVI melanoma; 74.6 µM in the experiment on HOP-92 NSCLC; above 100 µM in the experiment on SNB-19 CNS; above 100 µM in the experiment on CAKI-1 renal; above 100 µM in the experiment on SK-MEL-28 melanoma. Further, the TGI in the experiment on M14 melanoma is above 100 µM.
In the case of `COC(=O)N1C=Cc2c(c(C)c3c([nH]c4ccccc43)c2C)C1C` (stereo not drawn), the TGI in the experiment on EKVX NSCLC was 32.1 µM; in the experiment on LOX IMVI melanoma, 33.7 µM; in the experiment on HOP-92 NSCLC, 36.5 µM; in the experiment with SNB-19 CNS, 35.6 µM; with CAKI-1 renal it was 34.5 µM; in the experiment with SK-MEL-28 melanoma it was 31.1 µM. In addition, the TGI with M14 melanoma stood at 71.1 µM.
Take `Cc1nc2ccccc2c(=O)n1/N=C(\N=Nc1ccc(Cl)cc1)c1ccc(N(C)C)cc1`: the TGI with EKVX NSCLC, with LOX IMVI melanoma, in the experiment on SNB-19 CNS, in the experiment on CAKI-1 renal and in the experiment on SK-MEL-28 melanoma was above 100 µM each time.
On to `O=c1ccn([C@@H]2C[C@H](CO)CS(=O)C2)c(=O)[nH]1` (stereo partly drawn), for which the TGI in the experiment with EKVX NSCLC, in the experiment with LOX IMVI melanoma, in the experiment on HOP-92 NSCLC, in the experiment with SNB-19 CNS, in the experiment on CAKI-1 renal and in the experiment with SK-MEL-28 melanoma was above 100 µM each time. The molecule further displayed a TGI with M14 melanoma above 100 µM.
For `BrC(/C=N/Nc1nnc(-c2ccccc2)c(-c2ccccc2)n1)C(Br)c1ccccc1` (stereo not drawn), the TGI with EKVX NSCLC is above 100 µM; in the experiment with LOX IMVI melanoma, above 100 µM; in the experiment on HOP-92 NSCLC, 64.5 µM; in the experiment with SNB-19 CNS, above 100 µM; in the experiment on CAKI-1 renal it was above 100 µM; with SK-MEL-28 melanoma it was above 100 µM. In the experiment with M14 melanoma, the TGI amounted to 51.8 µM.
Consider `O=P(c1ccccc1)(c1ccccc1)C1CC=C2CCCCCC2C1` (stereo not drawn), for which the TGI in the experiment with EKVX NSCLC is above 100 µM; in the experiment with LOX IMVI melanoma, 65 µM; in the experiment on HOP-92 NSCLC it was 39.9 µM; in the experiment on SNB-19 CNS it was 81.6 µM; in the experiment with CAKI-1 renal it was 69.5 µM; in the experiment on SK-MEL-28 melanoma, above 10 µM. The same molecule had a TGI with M14 melanoma of 40.9 µM.
Regarding `COc1ccc(Cc2c3cc(OC)c(OC)cc3cc[n+]2C)cc1`, the TGI is above 59 µM in the experiment with EKVX NSCLC; above 24.7 µM in the experiment on LOX IMVI melanoma; 58.7 µM in the experiment with HOP-92 NSCLC; above 31.4 µM in the experiment on SNB-19 CNS; above 61.7 µM with CAKI-1 renal; above 58.6 µM in the experiment with SK-MEL-28 melanoma. The molecule also came in with a TGI in the experiment on M14 melanoma above 28.1 µM.
Turning to `C#CC[C@]12CC(=O)CC[C@H]1CC1(C2)OCCO1`, the TGI with SNB-19 CNS, in the experiment with CAKI-1 renal, with SK-MEL-28 melanoma and in the experiment with M14 melanoma was above 100 µM throughout.
Turning to `Cc1cc2c(=O)cc(-c3ccncc3)oc2c(C(N)=O)c1C`, the TGI with EKVX NSCLC, in the experiment with LOX IMVI melanoma, in the experiment on HOP-92 NSCLC, with SNB-19 CNS and with SK-MEL-28 melanoma was above 100 µM throughout.
With `C[C@H](O)CCC(=O)c1ccoc1`, the TGI in the experiment on EKVX NSCLC, with LOX IMVI melanoma, in the experiment on HOP-92 NSCLC, in the experiment on SNB-19 CNS, with CAKI-1 renal and with SK-MEL-28 melanoma was above 100 µM in each case. Also, the TGI with M14 melanoma was above 100 µM.
Consider `C/C(=N\NC(N)=S)c1ccc(Oc2ccccc2)cc1`, for which the TGI is 50.4 µM with EKVX NSCLC; 34.5 µM in the experiment with LOX IMVI melanoma; 9.48 µM in the experiment on HOP-92 NSCLC; 84.5 µM with SNB-19 CNS; 33.2 µM in the experiment with SK-MEL-28 melanoma; 25.8 µM in the experiment on M14 melanoma.
For the molecule `Cc1c(Cl)ccc2[s+]snc12`, the TGI was above 100 µM in the experiment on EKVX NSCLC; 49.9 µM in the experiment with LOX IMVI melanoma; above 100 µM in the experiment on SNB-19 CNS; above 100 µM in the experiment with CAKI-1 renal; above 100 µM in the experiment on SK-MEL-28 melanoma; 77.8 µM in the experiment on M14 melanoma.
For `CC(=O)[O-].O=C([CH-]C(=O)c1ccccc1)c1ccccc1.O=C([CH-]C(=O)c1ccccc1)c1ccccc1.[Dy+3]`, the GI50 in the experiment on EKVX NSCLC was 9.62 µM; with LOX IMVI melanoma it was 12.4 µM; in the experiment on HOP-92 NSCLC, 18.8 µM; with SNB-19 CNS, 14.8 µM; in the experiment with CAKI-1 renal it was 17 µM; with SK-MEL-28 melanoma, 15.4 µM. In addition, in the experiment with M14 melanoma, the GI50 is 15.9 µM. Further, the TGI in the experiment with EKVX NSCLC came out at 42.6 µM; in the experiment with LOX IMVI melanoma, 30.9 µM; with HOP-92 NSCLC, 43.9 µM; in the experiment with SNB-19 CNS, 70.3 µM; with CAKI-1 renal, 50.3 µM; with SK-MEL-28 melanoma, 51.4 µM. Also, the TGI with M14 melanoma amounted to 36 µM.
Consider `CC[C@H]1CNC(=O)CC1CC(=O)OC` (stereo partly drawn), for which the TGI with EKVX NSCLC, in the experiment with LOX IMVI melanoma, in the experiment with SNB-19 CNS, in the experiment on CAKI-1 renal, in the experiment with SK-MEL-28 melanoma and in the experiment on M14 melanoma was above 100 µM throughout.
Consider `COc1cc(Br)c(C2OCCCO2)cc1OCc1ccccc1`, for which the TGI with EKVX NSCLC was above 100 µM; in the experiment on LOX IMVI melanoma it was above 100 µM; in the experiment with HOP-92 NSCLC, 64.3 µM; in the experiment on SNB-19 CNS it was above 100 µM; with SK-MEL-28 melanoma it was above 100 µM; in the experiment on M14 melanoma, above 100 µM.
For `CCn1c(O)c(C(=O)Nc2cccs2)c(=O)n(CC)c1=S`, the TGI was 33.3 µM in the experiment with LOX IMVI melanoma; 47.8 µM in the experiment on HOP-92 NSCLC; 48 µM in the experiment with SNB-19 CNS; 75.9 µM with CAKI-1 renal; 32.2 µM with SK-MEL-28 melanoma; 43.8 µM in the experiment with M14 melanoma.
Regarding `O=C1N(c2ccccc2)C2(O)C(=O)c3ccccc3C2(O)N1c1ccccc1` (stereo not drawn), the TGI with EKVX NSCLC, with LOX IMVI melanoma, with SNB-19 CNS, in the experiment with CAKI-1 renal, in the experiment with SK-MEL-28 melanoma and with M14 melanoma was above 100 µM in each case.
Take `N#CC1(C2CC(=O)N(c3ccccc3)C2=O)CCCCC1=O` (stereo not drawn): the TGI in the experiment on EKVX NSCLC, with LOX IMVI melanoma, in the experiment on SNB-19 CNS, with SK-MEL-28 melanoma and with M14 melanoma was above 100 µM in each case.
Turning to `COc1cc(CC2c3cc(OC)c(OC)cc3CCN2C)c(C(=O)O)cc1OC` (stereo not drawn), the TGI in the experiment with EKVX NSCLC, with LOX IMVI melanoma, in the experiment on HOP-92 NSCLC, in the experiment on SNB-19 CNS, in the experiment on SK-MEL-28 melanoma and in the experiment on M14 melanoma was above 100 µM in each case.
With `CCOc1ccc(/C=C/C(=O)c2sc(NNC(C)=O)nc2C)cc1`, the TGI in the experiment on EKVX NSCLC, with LOX IMVI melanoma, in the experiment on HOP-92 NSCLC, in the experiment on SNB-19 CNS, in the experiment with CAKI-1 renal and in the experiment with SK-MEL-28 melanoma was above 100 µM each time.
Take `O=C1C(=C2C(=O)c3ccccc3[N+]2=O)N([O-])c2ccccc21`: the TGI with EKVX NSCLC was 42.2 µM; in the experiment on LOX IMVI melanoma, 29.8 µM; in the experiment on SNB-19 CNS, above 100 µM; in the experiment with SK-MEL-28 melanoma, above 100 µM; with M14 melanoma, 43.7 µM.
